Values of other authors as cited in patent publication US20200237731A1, “USE OF CLOXACILLIN TO INHIBIT/PREVENT BIOFILM FORMATION” (priority 2017, published 2020).

Key:
[1] = system: biofilm forming Staphylococcus aureus; settings: compounds tested individually; Singh and Mishra, 2012; cited from earlier work
S. aureus = settings: sub-MIC doses; Mirani et al., 2011; cited from earlier work
Clostridium difficile = settings: Vuotto et al., 2016; cited from earlier work
S. aureus strain USA 300 = settings: sub-MIC doses; Mlynek et al., 2016; cited from earlier work
[2] = system: clinical isolates of S. aureus; settings: in vitro; Tunney et al., 2007; cited from earlier work

## CC1(C)S[C@@H]2[C@H](NC(=O)[C@H](N)c3ccccc3)C(=O)N2[C@H]1C(=O)O [ampicillin]
[1]
  preventive action against biofilm formation: not sufficiently active

## Cc1onc(-c2ccccc2)c1C(=O)N[C@@H]1C(=O)N2[C@@H]1SC(C)(C)[C@@H]2C(=O)O [oxacillin]
S. aureus
  biofilm formation by S. aureus: induces biofilm formation

## penicillin
[1]
  preventive action against biofilm formation: not sufficiently active

## CN[C@H](CC(C)C)C(=O)N[C@H]1C(=O)N[C@@H](CC(N)=O)C(=O)N[C@H]2C(=O)N[C@H]3C(=O)N[C@H](C(=O)N[C@H](C(=O)O)c4cc(O)cc(O)c4-c4cc3ccc4O)[C@H](O)c3ccc(c(Cl)c3)Oc3cc2cc(c3O[C@@H]2O[C@H](CO)[C@@H](O)[C@H](O)[C@H]2O[C@H]2C[C@](C)(N)[C@H](O)[C@H](C)O2)Oc2ccc(cc2Cl)[C@H]1O [vancomycin]
S. aureus
  biofilm formation by S. aureus: induces biofilm formation

## Cc1ncc([N+](=O)[O-])n1CCO [metronidazole]
Clostridium difficile
  biofilm formation by Clostridium difficile: increases biofilm formation

## CC1(C)S[C@@H]2[C@H](NC(=O)[C@H](N)c3ccc(O)cc3)C(=O)N2[C@H]1C(=O)O [amoxicillin]
S. aureus strain USA 300
  attachment of S. aureus strain USA 300: induces attachment

## gentamicin
[2]
  effect of treatment of bone cement on biofilm formation: ineffectiveness
